Experimental data: patent US9249112B2, “Solid forms of a transthyretin dissociation inhibitor” (PFIZER INC., priority 2011, dated 2016)

Experiments:
Assay type in all cases: physicochemical
[1] = hygroscopicity of the solid form; settings: crystalline form, anhydrous mono-meglumine salt
[2] = solubility in unbuffered water; settings: free acid
[3] = gel formation on contact with aqueous vehicles; settings: compound alone, on contact with aqueous vehicles such as water, phosphate buffer and hydrochloric acid
Excerpt: Without wishing to be bound by theory, it appears that such gel formation, upon oral administration, can hinder dissolution and/or bioavailability of such compounds, leading to, for example, stomach compaction and non-proportional plasma levels of drug in the subject as compared to the dose administered. […] Consequently, the pharmaceutical compositions herein are also contemplated for use in or further combination with any conventional formulation or route or method of administration where contact with water or other aqueous vehicles may occur, e.g., contact with blood or other body fluids as in various forms of parenteral administration (e.g., contact with blood in intravenous administration, implants, and the like), contact with mucous membranes (e.g., suppositories via vaginal or rectal administration, dry powder aerosols for pulmonary administration, transdermal patches or lozenges applied to mucous membranes, and the like). In such routes of administration, the benefits of the certain pharmaceutical compositions, such as resistance to gel formation, greater dissolution and bioavailability, dose proportionality, stability to storage, or the like may be beneficial.

hygroscopicity [1] | solubility [2] [µg/mL] | gel formation [3] | Molecule
non-hygroscopic |  |  | 6-carboxy-2-(3,5-dichlorophenyl)-benzoxazole meglumine [Compound 1]
 | < 11 | can form a gel | O=C(O)c1ccc2nc(-c3cc(Cl)cc(Cl)c3)oc2c1 [free acid, 6-carboxy-2-(3,5-dichlorophenyl)-benzoxazole]
